Patent publication US6406870B2, “Methods and compositions for modulating heterotypic E-cadherin interactions with T lymphocytes” (The Brigham and Women's Hospital, Inc., priority 1994, dated 2002)

Assays:
[1] = system: IEL adhesion to 16E6.A5 epithelial cells; assay: IEL adhesion to 16E6.A5 epithelial cell monolayers; format: cell-based, human; settings: epithelial cell monolayers pretreated with cytokine
Procedure: Monolayers of adherent cells were grown in flat bottomed 96-well Linbro tissue culture plates. 10^4 adherent cells in 100 μl complete media were added per well and allowed to grow for two to three days until they reached confluence. Just prior to the addition of IEL or transfected COS 7 cells, the adherent cell monolayers were washed with assay media. To label IEL and COS-7 cells, 25 μg of 2′,7′-bis-(2-carboxyethyl)-5 (and -6)-carboxyfluorescein (BCECF-AM, Molecular Probes, Inc., Eugene, Oreg.) was diluted in 5 μl DMSO and added to a suspension of 5×10^6/ml IEL or COS-7 cells in complete media. The cells were incubated at 37° C. for 25 minutes then washed twice in assay media (PBS containing 1 mM CaCl2, 2 mM MgCl2 and 10 mM HEPES). After washing, 50,000 labeled IEL or COS-7 cells in 100 μl of assay media were added to the adherent cell monolayers. IEL or COS-7 cells were allowed to settle onto adherent cell monolayers for 25 or 40 min. at 37° C. Unbound cells were removed by flicking media from the plate. Bound cells were detected using a Fluorescence plate reader (IDEXX Co., Portland, Me.). If antibody blocking was performed, the IEL, COS-7 cells, epithelial cell monolayers, or L-M monolayers were pre-incubated with a 1:250 dilution of ascites fluid or 10 μg/ml of purified mAb for five minutes at 37° C. prior to encounter with the second cell type. At least four replicates were performed. The % cells bound was calculated by reading the fluorescence units obtained after unbound cells were washed off, dividing this number by the input fluorescence units and multiplying by 100. […] In adhesion assays where divalent cations were varied, the IEL were washed with Ca^++ and Mg^++ free Hank's balanced salt solution (HBSS) and pre-equilibrated with HBSS containing the indicated concentrations of MgCl2, MnCl2, or CaCl2 for 10 min. at 37° C. prior to incubation with 16E6.A5 monolayers which had been washed with Ca^++ and Mg^++ free HBSS. Disruption of T84 cell intercellular tight junctions.
The 16E6.A5 cell line was derived by immortalization of the 76N normal epithelial cell line through transfection of the E6 and E7 genes of human papilloma virus (by V. Band, Tufts University, publically available). Monolayers of these adherent cells are grown in flat-bottomed 96-well Linbro tissue culture plates. […] Bound cells are detected using a Fluorescence plate reader (IDEXX Co., Portland Me.). […] The % cells bound is calculated by reading the fluorescence units obtained after unbound cells are washed off and dividing this number by the input fluorescence units obtained after adding 50,000 cells/well and multiplying by 100. Serial dilutions of labeled cells have shown that as few as 1000 cells can be detected in the linear range.

[2] = system: integrin expression on IEL lines; assay: FACS analysis of integrin expression on cultured IEL; format: cell-based, human; settings: culture of IEL lines with TGF-β1
From the text: Human intestinal tissue was obtained from fatal accident organ donors or from adult patients undergoing resection for colorectal carcinoma, from sections at least 10 cm away from macroscopically detectable lesions. IEL were isolated as described previously (Davies M. D. J. et al. (1981) Gut 22:481; Parker C. et al. (1992) Proc. Natl. Acad. Sci. USA 89:1924). once isolated, the IEL were stimulated with phytohemagglvtinin-P (PHA:Difco) and irradiated feeder cells (80% peripheral blood mononuclear cells and 20% JY lymphoblastoid cells) in Yssel's medium (Yssel H. et al. (1984) J. Immunol. Methods 72:219) containing 2 nM recombinant interleukin (IL)-2 (gift of Ajinomoto, Kawasaki, Japan), 4% (vol/vol) conditioned medium (Brenner M. et al. (1987) J. Immunol. 138:1502), 4% (vol/vol) fetal calf serum (Hyclone), and 50 AM 2-mercaptoethanol at 10% Co2. […] Two different anti-CD8 mAb (OKT8, CD8α; and T8/2T85H7, CD8β) were used to discriminate between expression of the CD8 αα homodimer and the CD8 αβ heterodimer. In agreement with previously reported data (Jarry A. et al. (1990) Eur. J. of Immunol. 20(5):1097), 10% of the CD8^+ cells expressed the homodimer. Thus, the lines were thought to be highly purified IEL preparations. Long term culture of the 032891 and 390I IEL lines was maintained by intermittent restimulation with PHA and irradiated feeder cells. In single color FACS analysis, the long term 032891 cell line was 99% CD3^+, 99% T cell receptor αβ positive, and 99% CD8 αβ positive. The 390I cell line was 99% CD3^+, 99% T cell receptor αβ positive, and 99% CD8 αβ positive and 6% CD4 positive. […]
FACS analysis was performed by suspending 2.5×10^5 cells in 100 μl of staining buffer (PBS, 1% BSA, 4% human serum, 0.02% NaN3) containing saturating concentrations of mAbs and incubating for 1 hr. at 4° C. […] Biotin-conjugated mAbs were used to stain the second molecule which was visualized by PE-conjugated streptavidin (Becton Dickinson & Co., Mountain View, Calif. Viable cells were analyzed using the FACScan or FACSort flow cytometer (Becton Dickinson & Co.).

[3] = system: homotypic E-cadherin adhesion; settings: soluble recombinant protein produced in insect cells; cited from earlier work

Row | Molecule | effect on IEL-to-epithelial cell adhesion [1] | also measured
1 | IFN-γ: interferon, cytokine | increased adhesion | 
2 | IL-1B: interleukin, cytokine | no effect | 
3 | TGF-β1: transforming growth factor-beta 1 |  | expression of α^Eβ7 on IEL lines [2]: dramatically up-regulated; expression of α^Lβ2 on IEL lines [2]: down regulated; expression of β1 and its associated α chains on IEL lines [2]: little effect
4 | Recombinant human E-cadherin: recombinant human E-cadherin containing nearly the entire extracellular domain, produced in insect cells (Herrenknecht and Kemler) |  | blocking of homophilic E-cadherin mediated cell-cell binding [3]: failed to block
5 | TNF-α | no effect | 
6 | IL-4: interleukin, cytokine (protein, UniProt P05112 25-153, looked up) Interleukin-4: HKCDITLQEIIKTLNSLTEQKTLCTELTVTDIFAASKNTTEKETFCRAATVLRQFYSHHEKDTRCLGATAQQFHRHKQLIRFLKRLDRNLWGLAGLNSCPVKEANQSTLENFLERLKTIMREKYSKCSS | no effect | 
